One assay has as its system rd10 mice. The assay is described as follows: Rod photoreceptor preservation in rd10 mice (photoreceptor rows in ONL, immunofluorescence). The format is in vivo, mouse. The method, then:
(§1) All inhibitors were diluted in 0.9% bacteriostatic sodium chloride (saline).
(§2) Retinas were fixed in 4% paraformaldehyde overnight at 4° C., washed in PBS, incubated in 5% sucrose/PBS for 30 min and then cryopreserved in 20% sucrose/PBS overnight at 4° C. Retinas were embedded in 2:1 mix of 20% sucrose and OCT (Sakura Finetek Torrance, CA) and stored at −80° C. Blocks with tissue samples were sectioned to 7-10 μm on a Cryostat Microtome HM550 (Thermo Fisher Scientific) and stored at −20° C. Antigen retrieval was performed by incubating the slides in 10 mM sodium citrate pH 6 for 30 min at 80° C. Double labeling immunohistochemistry was performed using fluorescent Alexa Fluor-conjugated secondary antibodies diluted 1:800 (Invitrogen, Carlsbad, California). Primary antibodies were diluted as follow: anti-H3K4me2 1:600, anti-H3K9me2 1:600, anti-RHO 1:50, anti-OPN1SW 1:400, anti-GFAP 1:1000, anti-IBA1 1:450 (AifI gene). […] The acquisition parameters were maintained constant for each set of experiments. Fluorescence intensity was assessed using ImageJ software (Bethesda, MD).

Another assay concerns rd10 mice retina. The assay is described as follows: RT-PCR retinal gene expression, rd10 mice. It is filed as in vivo, mouse. The method, then:
(§3) Whole retinas were isolated from animals by removing the sclera and most of the retinal pigmented epithelium (RPE) layer under PBS. The right eye retinas from each animal were taken for RNA extraction, cDNA preparation and RT-PCR. Immediately after isolation, tissue was flash frozen in liquid nitrogen and stored at −80° C. Left eye retinas from each animal were subjected to fixation, cryopreservation, sectioning, and immunofluorescence staining. RNA extraction and purification followed the manufacturer's protocol from RNeasy Mini Kit and RNA shredder (Qiagen). […] Primers purchased from Integrated DNA Technologies (IDT). For quantitative real-time PCR we used 2× iQ-SYBR Green PCR supermix from Bio-Rad. Samples in triplicate were run on an iQ5 Multicolor Real Time PCR Detection System (Bio-Rad). The relative expression level for each gene was calculated by the 2-ΔΔCt method and normalized to GAPDH.

Another assay deals with WT mice retina. The assay is described as follows: RT-PCR retinal gene expression, WT mice. The format is in vivo, mouse. The method, then:
as §3

For the next assay, the system named is rod nuclei. The settings on record: WT + TCP, PN24. The method, then:
as §2
The number of heterochromatin foci in rod nuclei was calculated to estimate the level of rod photoreceptor maturation in retinas of animals treated with LSD1 inhibitors (FIG. 10B).

For the next assay, the system named is H3K4me2, H3K9me2. The assay is described as follows: Anti-H3K4me2 and anti-H3K9me2 Western blot of WT retina. To be noted: WT mice treated PN9 till PN24. The format is in vivo, mouse. The method, then: Both retinas from one animal were flash frozen together in liquid nitrogen and stored at −80° C. Samples for SDS-PAGE were prepared by resuspended retinas in 50 μl PBS. Laemmli sample buffer was added, samples were boiled for 10 min, resolved on Criterion TGX Precast Gel AnyKD (Bio-Rad), transferred to nitrocellulose membrane, and immunoblotted with antibodies anti-H3K9me2 or anti-H3K4me2 diluted 1:5000; anti-ACTB diluted 1:10000; anti-PDE6B (1:500). Secondary goat anti-rabbit/mouse HRP (Jackson Immuno-Research Laboratory, West Grove, PA) was diluted 1:5000. An ECL western blot detection system (Thermo Fisher Scientific) was used to visualize the bound of the primary antibody.

The subject of another assay is rd10. To be noted: TCP PN9 till PN24. On the procedure:
Retinas were fixed in 4% paraformaldehyde overnight at 4° C., washed in PBS, incubated in 5% sucrose/PBS for 30 min and then cryopreserved in 20% sucrose/PBS overnight at 4° C. Retinas were embedded in 2:1 mix of 20% sucrose and OCT (Sakura Finetek Torrance, CA) and stored at −80° C. Blocks with tissue samples were sectioned to 7-10 μm on a Cryostat Microtome HM550 (Thermo Fisher Scientific) and stored at −20° C. TUNEL assay was carried out using the In situ Cell death detection kit, Fluorescein from Roche (Germany) according to manufacturer's instruction.

The test system of another assay is GFAP, IBA1. The assay is described as follows: Immunofluorescence labeling of GFAP and IBA1 in retina sections. The settings on record: rd10, treated PN9 till PN24; levels remained above WT. The format is in vivo, mouse. On the procedure:
Fluorescence intensity was assessed using ImageJ software (Bethesda, MD).

A further assay concerns WT mice. The settings on record: TCP PN9 till PN24. On the procedure: as §1, §2
For a further assay, the system named is rd1 mice. To be noted: previous studies; cited from earlier work.
The next assay relates to RGC. To be noted: previous study; cited from earlier work.
In another assay the test system is RP. The settings on record: previous studies, cited from earlier work; for protective effect on RP: non-selective HDAC inhibitors.

With `N[C@@H]1C[C@H]1c1ccccc1` (relative stereo) [TCP, trans-2-Phenylcyclopropylamine], in the assay on rd10 mice (TCP 10 mg/kg i.p. daily PN9 till PN24), the “rows of photoreceptors remaining in the ONL at PN24” value came to 7 rows. Besides, in the assay on rd10 mice retina (treated PN9 till PN24, assayed PN24, vs saline), the “expression of rod photoreceptor genes relative to GAPDH” value is on record as “increased expression of almost all rod genes”. In addition, the “expression of cone genes Thrb or Gnat2” value in the assay on rd10 mice retina (treated PN9 till PN24 vs saline) is listed as “slightly up-regulated”. In addition, the “expression of rod photoreceptor genes” value in the assay on WT mice retina (WT mice treated PN9 till PN24) is listed as “no changes”. For the same compound, the “expression of transcription factors of retina development and maturation” value in the assay with WT mice retina (WT retinas, treated PN9 till PN24) was “slightly increased expression”. Further, the “rod nuclei with 3 foci” value in the assay with rod nuclei (WT saline 2%) stood at 7%. Further, in the assay on rod nuclei (WT saline 43%), the “rod nuclei with two foci” value stood at 51%. Moreover, the “rod nuclei with one focus” value in the assay on rod nuclei (WT saline 55%) is 42%. In addition, in the assay on H3K4me2, H3K9me2, the “global levels of H3K4me2” value is given as “did not change significantly” and the “global levels of H3K9me2” value is “No changes”. Further, the “dying cells by TUNEL staining vs control” value in the assay on rd10 is given as “no significant difference”. In addition, the “IBA1 labeling (microglia)” value in the assay on GFAP, IBA1 is given as “decreased”. In addition, in the assay on WT mice, the ONL thickness result is “significantly increased” and the “number of rows of rods” value was “did not change”.

As for `Nc1nccc2c1ncn2[C@@H]1C=C(CO)[C@@H](O)[C@H]1O` [DZNep, 3-deazaneplanocin A], the “retinal degeneration / photoreceptor loss in rd1 mouse” value with rd1 mice is “delays in retinal degeneration”.

As to `Nc1cc(F)ccc1NC(=O)/C=C/c1cnn(C/C=C/c2ccccc2)c1` [RGFP966], the RGC death entry with RGC is on record as “protected against RGC death”.

For the compound `CC(/C=C/C(=O)NO)=C\[C@@H](C)C(=O)c1ccc(N(C)C)cc1` [TSA], the “protective effect on RP” value with RP was “some protective effect”.

Consider `CCCC(CCC)C(=O)O` [VPA], for which, in the assay with RP, the “protective effect on RP” value was “some protective effect” and the “outcome as therapeutic agent for retinal degeneration” value is “mixed results”.

`C/C=C1\NC(=O)[C@H]2CSSCC/C=C/[C@H](CC(=O)N[C@H](C(C)C)C(=O)N2)OC(=O)[C@H](C(C)C)NC1=O` [romidepsin]: the “rows of photoreceptor remaining in the ONL at PN24” value with rd10 mice (romidepsin 0.2 mg/kg i.p. daily PN9 till PN24, saline control 2-3 rows) is 8 rows.

On to `CCCC(=O)[O-].[Na+]` [sodium butyrate], for which, in the assay on RP, the “protective effect on RP” value is “some protective effect”.

Values taken from US20230310542A1, “EPIGENETIC MODIFIERS TO TREAT RETINAL DEGENERATIONS” (priority 2022, published 2023).
